This note sets out measurements from patent US12588678B2, “Oxazoline compound, synthesis method therefor and application thereof” (NANKAI UNIVERSITY, priority 2019, dated 2026).

Assay [1] relates to Tetranychus cinnabarinus mite eggs. The assay is described as follows: Activity against mite eggs, dipping method on bean seedling leaves. In kind it is in vivo. Particulars: Tetranychus cinnabarinus, 96 h, checked after 4 days; for mortality at 0.1 µg/mL: read-out: mortality of mite eggs (%), 0.1 mg/L; for mortality at 0.5 µg/mL: read-out: mortality of mite eggs (%), 0.5 mg/L; for mortality at 1 µg/mL: read-out: mortality of mite eggs (%), 1 mg/L; for mortality at 10 µg/mL: read-out: mortality of mite eggs (%), 10 mg/L; for mortality at 100 µg/mL: read-out: mortality of mite eggs (%), 100 mg/L; for mortality at 200 µg/mL: read-out: mortality of mite eggs (%), 200 mg/L. An outline of the steps:
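Dipping method, three replicates each: leaves carrying 1-day-old mite eggs (24 h laying at 25° C.) immersed 5-6 s in compound solution or additive-only blank. Dead eggs counted 4 days later as percent of eggs treated.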

In assay [2] the test system is Tetranychus cinnabarinus mite larvae. The assay is described as follows: Larvicidal activity test, dipping method on bean seedling leaves. In kind it is in vivo. The following applies: for acaricidal activity compared with etoxazole: Tetranychus cinnabarinus eggs and larvae, etoxazole as reference; for mortality at 0.05 µg/mL: read-out: mortality of mite larvae (%), 0.05 mg/L; for mortality at 0.1 µg/mL: read-out: mortality of mite larvae (%), 0.1 mg/L; for mortality at 0.5 µg/mL: read-out: mortality of mite larvae (%), 0.5 mg/L; for mortality at 1 µg/mL: read-out: mortality of mite larvae (%), 1 mg/L; for mortality at 10 µg/mL: read-out: mortality of mite larvae (%), 10 mg/L; for mortality at 100 µg/mL: read-out: mortality of mite larvae (%), 100 mg/L; for mortality at 200 µg/mL: read-out: mortality of mite larvae (%), 200 mg/L. In outline:
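Dipping method: larvae-infested bean seedling leaves were immersed 5–6 s in Tween-containing test solution, with a blank of additives only. Larvae had hatched over 5 days from eggs laid during 24 h at 25° C. Mortality % was counted 4 days later, in triplicate.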

Setting [3] is: Tetranychus cinnabarinus, 96 h, checked after 4 days.

Turning to `CCCS(=O)(=O)Oc1ccc(C2COC(c3c(F)cccc3F)=N2)cc1` (centres unmarked) [Compound R3-3], the mortality at 0.05 µg/mL in assay [1] (read-out: mortality of mite eggs (%), 0.05 mg/L) came out at 20%. In assay [1], the mortality at 0.1 µg/mL came out at 50%, the mortality at 0.5 µg/mL came out at 75%, the mortality at 1 µg/mL is 90% and the mortality at 10 µg/mL came out at 100%. In addition, in assay [1], the mortality at 100 µg/mL turned out to be 100% and the mortality at 200 µg/mL was determined as 100%. The “acaricidal activity compared with etoxazole” value in assay [2] was “equivalent or better acaricidal activity compared with etoxazole”. In assay [2] (setting [3]), the mortality at 0.05 µg/mL is 40%, the mortality at 0.1 µg/mL was 80%, the mortality at 0.5 µg/mL is 95% and the mortality at 1 µg/mL was 100%. In assay [2] (setting [3]), the mortality at 10 µg/mL stood at 100%, the mortality at 100 µg/mL was determined as 100% and the mortality at 200 µg/mL was 100%.

With `C=CS(=O)(=O)Oc1ccc(C2COC(c3c(F)cccc3F)=N2)cc1` (centres unmarked) [Compound R3-6], in assay [1], the mortality at 10 µg/mL was 60%, the mortality at 100 µg/mL is 80% and the mortality at 200 µg/mL is 100%. Besides, in assay [2] (setting [3]), the mortality at 1 µg/mL amounted to 60%, the mortality at 10 µg/mL is 80%, the mortality at 100 µg/mL amounted to 80% and the mortality at 200 µg/mL turned out to be 100%.

`O=S(=O)(Oc1ccc(C2COC(c3c(F)cccc3F)=N2)cc1)c1ccc(F)cc1` (centres unmarked) [Compound R3-7]: in assay [1], the mortality at 1 µg/mL came out at 60%, the mortality at 10 µg/mL was determined as 90%, the mortality at 100 µg/mL was 100% and the mortality at 200 µg/mL was found to be 100%. Moreover, in assay [2] (setting [3]), the mortality at 1 µg/mL was determined as 50%, the mortality at 10 µg/mL amounted to 90%, the mortality at 100 µg/mL amounted to 100% and the mortality at 200 µg/mL was 100%.

As for `O=S(=O)(Oc1ccc(C2COC(c3c(F)cccc3F)=N2)cc1)c1ccc(Cl)cc1` (centres unmarked) [Compound R3-8], in assay [1], the mortality at 1 µg/mL was 70%, the mortality at 10 µg/mL turned out to be 90%, the mortality at 100 µg/mL turned out to be 95% and the mortality at 200 µg/mL turned out to be 100%. Also, in assay [2] (setting [3]), the mortality at 0.1 µg/mL was 60%, the mortality at 1 µg/mL came out at 85%, the mortality at 10 µg/mL is 98% and the mortality at 100 µg/mL turned out to be 100%. For the same compound, the mortality at 200 µg/mL in assay [2] (setting [3]) turned out to be 100%.

On to `O=S(=O)(Oc1ccc(C2COC(c3c(F)cccc3F)=N2)cc1)c1ccc(Br)cc1` (centres unmarked) [Compound R3-9], for which, in assay [1], the mortality at 0.1 µg/mL is 30%, the mortality at 0.5 µg/mL amounted to 60%, the mortality at 1 µg/mL was determined as 75% and the mortality at 10 µg/mL came to 90%. Also, in assay [1], the mortality at 100 µg/mL was determined as 100% and the mortality at 200 µg/mL stood at 100%. Moreover, the “acaricidal activity compared with etoxazole” value in assay [2] is reported as “equivalent or better acaricidal activity compared with etoxazole”. Besides, in assay [2] (setting [3]), the mortality at 0.05 µg/mL amounted to 40%, the mortality at 0.1 µg/mL was determined as 70%, the mortality at 0.5 µg/mL was 90% and the mortality at 1 µg/mL was found to be 100%. In assay [2] (setting [3]), the mortality at 10 µg/mL is 100%, the mortality at 100 µg/mL was found to be 100% and the mortality at 200 µg/mL is 100%.

Turning to `O=S(=O)(Oc1ccc(C2COC(c3c(F)cccc3F)=N2)cc1)c1ccc(I)cc1` (centres unmarked) [Compound R3-10], in assay [1], the mortality at 1 µg/mL came out at 60%, the mortality at 10 µg/mL amounted to 85%, the mortality at 100 µg/mL worked out at 100% and the mortality at 200 µg/mL was 100%. In addition, in assay [2] (setting [3]), the mortality at 1 µg/mL turned out to be 65%, the mortality at 10 µg/mL is 88%, the mortality at 100 µg/mL amounted to 100% and the mortality at 200 µg/mL was determined as 100%.

Consider `O=S(=O)(Oc1ccc(C2COC(c3c(F)cccc3F)=N2)cc1)c1ccccc1F` (centres unmarked) [Compound R3-11], for which, in assay [1], the mortality at 1 µg/mL amounted to 50%, the mortality at 10 µg/mL is 80%, the mortality at 100 µg/mL came to 95% and the mortality at 200 µg/mL is 100%. In assay [2] (setting [3]), the mortality at 0.1 µg/mL was 50%, the mortality at 1 µg/mL turned out to be 80%, the mortality at 10 µg/mL is 90% and the mortality at 100 µg/mL came out at 100%. For the same compound, the mortality at 200 µg/mL in assay [2] (setting [3]) was 100%.

Take `O=S(=O)(Oc1ccc(C2COC(c3c(F)cccc3F)=N2)cc1)c1cccc(F)c1` (centres unmarked) [Compound R3-12]: in assay [1], the mortality at 1 µg/mL was 55%, the mortality at 10 µg/mL came to 90%, the mortality at 100 µg/mL came to 100% and the mortality at 200 µg/mL worked out at 100%. In assay [2] (setting [3]), the mortality at 1 µg/mL is 50%, the mortality at 10 µg/mL is 90%, the mortality at 100 µg/mL turned out to be 100% and the mortality at 200 µg/mL worked out at 100%.

With `O=S(=O)(Oc1ccc(C2COC(c3c(F)cccc3F)=N2)cc1)c1ccc(C(F)(F)F)cc1` (centres unmarked) [Compound R3-13], in assay [1], the mortality at 1 µg/mL turned out to be 70%, the mortality at 10 µg/mL was 90%, the mortality at 100 µg/mL turned out to be 100% and the mortality at 200 µg/mL was 100%. In assay [2] (setting [3]), the mortality at 0.1 µg/mL is 60%, the mortality at 1 µg/mL was 80%, the mortality at 10 µg/mL came out at 95% and the mortality at 100 µg/mL turned out to be 100%. Further, in assay [2] (setting [3]), the mortality at 200 µg/mL is 100%.

As for `O=S(=O)(Oc1ccc(C2COC(c3c(F)cccc3F)=N2)cc1)c1ccc(F)cc1F` (centres unmarked) [Compound R3-14], in assay [1], the mortality at 1 µg/mL is 50%, the mortality at 10 µg/mL came to 85%, the mortality at 100 µg/mL came out at 90% and the mortality at 200 µg/mL came to 100%. In addition, in assay [2] (setting [3]), the mortality at 0.1 µg/mL came out at 60%, the mortality at 1 µg/mL stood at 80%, the mortality at 10 µg/mL is 95% and the mortality at 100 µg/mL worked out at 100%. In addition, the mortality at 200 µg/mL in assay [2] (setting [3]) came to 100%.

Regarding `O=S(=O)(Oc1ccc(C2COC(c3c(F)cccc3F)=N2)cc1)c1ccc(F)c(F)c1F` (centres unmarked) [Compound R3-15], in assay [1], the mortality at 1 µg/mL stood at 65%, the mortality at 10 µg/mL amounted to 95%, the mortality at 100 µg/mL was 100% and the mortality at 200 µg/mL worked out at 100%. Further, in assay [2] (setting [3]), the mortality at 0.1 µg/mL was 65%, the mortality at 1 µg/mL is 90%, the mortality at 10 µg/mL is 100% and the mortality at 100 µg/mL was found to be 100%. Moreover, the mortality at 200 µg/mL in assay [2] (setting [3]) amounted to 100%.

With `Cc1ccc(S(=O)(=O)Oc2ccc(C3COC(c4c(F)cccc4F)=N3)cc2)cc1` (centres unmarked) [Compound R3-16], in assay [1], the mortality at 1 µg/mL came out at 50%, the mortality at 10 µg/mL came to 70%, the mortality at 100 µg/mL was found to be 92% and the mortality at 200 µg/mL is 100%. In addition, in assay [2] (setting [3]), the mortality at 1 µg/mL came out at 70%, the mortality at 10 µg/mL amounted to 85%, the mortality at 100 µg/mL was 100% and the mortality at 200 µg/mL came out at 100%.

For the compound `CC(C)(C)c1ccc(S(=O)(=O)Oc2ccc(C3COC(c4c(F)cccc4F)=N3)cc2)cc1` (centres unmarked) [Compound R3-17], in assay [1], the mortality at 0.1 µg/mL came to 45%, the mortality at 0.5 µg/mL was found to be 78%, the mortality at 1 µg/mL worked out at 90% and the mortality at 10 µg/mL was 96%. Moreover, in assay [1], the mortality at 100 µg/mL stood at 100% and the mortality at 200 µg/mL stood at 100%. Further, the “acaricidal activity compared with etoxazole” value in assay [2] was “equivalent or better acaricidal activity compared with etoxazole”. Also, the mortality at 0.01 µg/mL in assay [2] (Tetranychus cinnabarinus, 96 h, read-out: mortality of mite larvae (%), 0.01 mg/L, checked after 4 days) is 35%. Moreover, in assay [2] (setting [3]), the mortality at 0.05 µg/mL came out at 50%, the mortality at 0.1 µg/mL turned out to be 85%, the mortality at 0.5 µg/mL came to 90% and the mortality at 1 µg/mL came out at 95%. For the same compound, in assay [2] (setting [3]), the mortality at 10 µg/mL came to 100%, the mortality at 100 µg/mL came to 100% and the mortality at 200 µg/mL came out at 100%.
